{"source": "patent US20050158321A1", "about": "“Treatment of rheumatoid arthritis with galectin-3 antagonists” (Entelos, Inc., priority 2003, published 2005)", "key": {"[1]": {"system": "arthritis induced by monoclonal antibodies raised against type II collagen, plus lipopolysaccharide", "test": "Inflammation, Collagen Arthritis, mAb in Mice (hind paw volume)", "format": "in vivo, BALB/c mice", "description": "Galectin-3 Ab was evaluated for possible anti-inflammatory activity in BALB/c mice with arthritis induced by monoclonal antibodies (mAb) raised against type II Collagen, plus lipoplysaccharide. Galectin-3 Ab (1, 0.5 and 0.25 mg/mouse×3) was administered intraperitoneally once daily for 3 consecutive days starting on day 3. Volumes of both hind paws were measured on days 5, 7, 10, 14 and 17 and the sum of both hind paw volumes was calulated. A 30% percent or more reduction (−30%) relative to the vehicle-treated group indicates significant.\nGalectin-3 Ab, B2C10 from Pharmingen, was dissolved in distilled water. Test substance at 1, 0.5 and 0.25 mg/mouse and vehicle were each administered intraperitoneally once daily for 3 consecutive days starting on day 3. The dosing volume was 0.2 ml/mouse for the test compound or 10 ml/kg (PO) for indomethacin. All treatments are summarized below:\nCollagen Arthritis, mAb Groups of 7 BALB/c strain mice, 6-7 weeks of age, were used for the induction of arthritis by monoclonal antibodies (mAbs) raised against type II collagen, plus lipopolysaccharide (LPS). A combination of 4 different mAbs (D8, F10, DI-2G and A2) totaling 4 mg/mouse was administered to the animals intravenously on day 0, followed by intravenous challenge with […] of LPS 72 hours later (day3). From one hour after LPS injection, Galectin-3 Ab (1, 0.5 and 0.25 mg/mouse) and vehicle were each administered intraperitoneally once daily for 3 consecutive days starting on day 3. Whereas, indomethacin which served as the positive control was administered orally (3 mg/kg) once daily for 3 consecutive days at the same time schedule as test compound. For each animal, volumes of both hind paws were measured using a plethysmometer with water cell (12 mm diameter) on Days 0, 5, 7, 10, 14 and 17. Percent inhibition of increase in volume was calculated by the following formula: Inhibition (%): [1−(Tn−T0)/(Cn−C0)]×100% • Where: • C0 (Cn): volume of day 0 (day n) in vehicle control • T0 (Tn): volume of day 0 (day n) in test compound-treated group.\nReduction of edema in the hind paws by 30% or more (^3 30%) is considered significant. In addition, body weight was documented during the testing period of day 0, 5, 7, 10, 14 and 17 in each animal percentage of body weight of each compound group at time points were calculated referring to the vehicle control group at each measurement day as 100%."}, "rheumatoid arthritis": {"system": "rheumatoid arthritis", "details": "methotrexate treatment, known effect; cited from earlier work"}, "[2]": {"system": "peripheral blood monocytes from healthy donors and rheumatoid arthritis patients", "test": "Monocyte chemotaxis assay (96-well chemotaxis plates)", "format": "cell-based, human", "details": "for migration of monocytes in combination with galectin-3: FIG. 14B, 14C", "description": "Peripheral blood mononuclear cells (PBMCs) were isolated from 6 healthy volunteer donors and 6 rheumatoid arthritis (RA) patients following informed consent and in accordance with protocols approved by the AMC Medical Ethics committee. Donor blood was diluted with cold PBS and PBMCs isolated by centrifugation over Ficoll. The PBMC layer was recovered and washed twice with PBS. Cells were counted, and monocytes isolated using a Dynal monocytes negative isolation kit as per the manufacturer's instructions. Monocytes were resuspended at 2×10^6 cells/ml in RPMI medium containing 0.5% fetal calf serum.\nChemotaxis assays were performed using 96-well disposable chemotaxis plates (Neuroprobe, 8 μm diameter pore size). Wells were preincubated for 1 hour at 37° C. with medium alone (RPMI containing 0.5% fetal calf serum), murine anti-human galectin-3 antibody B2C10 (0.1, 1 or 3 μg/ml) or lactose (10 mM). Lactose is a non-specific inhibitor of galectin-3. Purified recombinant human galectin-3 (1, 10 or 100 nM) was also included in the preincubation step. 5×10^4 monocytes obtained from healthy donors were added to the top of the filter in triplicate wells and cells allowed to migrate for 90 minutes at 37° C. The filter was then washed with PBS, and adhering non-migrating cells removed from the top of the filter by wiping. Migrating cells within the filter Were visualized by staining with crystal violet solution and washing with water. Following air-drying overnight, a computer digital imaging analyzer was used to capture 20 high-powered (400× magnification) fields encompassing the complete transwell filter, and migrating cells counted manually. FIG. 12 provides the relative amount migration (chemotaxis) in the presence of varying levels of galectin-3 and inhibitors of galectin-3 activity (B2C10 and lactose).\nIn a second experiment, wells were preincubated for 1 hour at 37° C. with medium alone (RPMI containing 0.5% fetal calf serum), murine anti-human galectin-3 antibody B2C10 (0.1, 1 or 3 μg/ml) or lactose (10 mM). Lactose is a non-specific inhibitor of galectin-3. Purified recombinant human galectin-3 (1, 10 or 100 nM) was also included in the preincubation step. 5×10^4 monocytes obtained from rheumatoid arthritis patients were added to the top of the filter in triplicate wells and cells allowed to migrate for 90 minutes at 37° C. The filter was then processed as described above and migrating cells were counted manually. […]\nMonocytes from 6 rheumatoid arthritis patient were stimulated with 6 different synovial fluids and monocyte chemotaxis was measured as described above in the presence of different concentrations of galectin-3 blocking antibody. […]"}}}
{"molecule": "COc1ccc2c(c1)c(CC(=O)O)c(C)n2C(=O)c1ccc(Cl)cc1", "note": "[Indomethacin, indomethacin]", "values": [{"measurement": "(%) Reduction of Edema vs. Vehicle Control", "setting": "[1]; Day 5, PO 3 mg/kg × 3, parenthesis = significant", "value": "(94) %"}, {"measurement": "(%) Reduction of Edema vs. Vehicle Control", "setting": "[1]; Day 5, PO 3 mg/kg × 3, parenthesis = significant, listed as indomethacin", "value": 94, "unit": "%"}, {"measurement": "(%) Reduction of Edema vs. Vehicle Control", "setting": "[1]; Day 7, PO 3 mg/kg × 3, parenthesis = significant", "value": "(70) %"}, {"measurement": "(%) Reduction of Edema vs. Vehicle Control", "setting": "[1]; Day 7, PO 3 mg/kg × 3, parenthesis = significant, listed as indomethacin", "value": 70, "unit": "%"}, {"measurement": "(%) Reduction of Edema vs. Vehicle Control", "setting": "[1]; Day 10, PO 3 mg/kg × 3, parenthesis = significant", "value": "(85) %"}, {"measurement": "(%) Reduction of Edema vs. Vehicle Control", "setting": "[1]; Day 10, PO 3 mg/kg × 3, parenthesis = significant, listed as indomethacin", "value": 85, "unit": "%"}, {"measurement": "(%) Reduction of Edema vs. Vehicle Control", "setting": "[1]; Day 14, PO 3 mg/kg × 3, parenthesis = significant", "value": "(85) %"}, {"measurement": "(%) Reduction of Edema vs. Vehicle Control", "setting": "[1]; Day 14, PO 3 mg/kg × 3, parenthesis = significant, listed as indomethacin", "value": 85, "unit": "%"}, {"measurement": "(%) Reduction of Edema vs. Vehicle Control", "setting": "[1]; Day 17, PO 3 mg/kg × 3, parenthesis = significant", "value": "(84) %"}, {"measurement": "(%) Reduction of Edema vs. Vehicle Control", "setting": "[1]; Day 17, PO 3 mg/kg × 3, parenthesis = significant, listed as indomethacin", "value": 84, "unit": "%"}]}
{"molecule": "CN(Cc1cnc2nc(N)nc(N)c2n1)c1ccc(C(=O)N[C@@H](CCC(=O)O)C(=O)O)cc1", "note": "[Methotrexate, methotrexate]", "values": [{"measurement": "decrease of synovial cell density", "setting": "rheumatoid arthritis", "value": "approximately 30%"}, {"measurement": "decrease of the concentration of IL-6 in synovial tissue", "setting": "rheumatoid arthritis", "value": 93, "unit": "%"}, {"measurement": "decrease of the rate of cartilage degradation", "setting": "rheumatoid arthritis", "value": "approximately 15%"}]}
{"molecule": "Galectin-3: purified recombinant human galectin-3", "values": [{"measurement": "induction of chemotactic activity, alone", "setting": "[2]; healthy donor or RA peripheral blood monocytes, 1, 10 or 100 nM", "value": "does not reproducibly induce chemotactic activity"}, {"measurement": "monocyte chemotaxis in the presence of 1 ng/ml fMLP", "setting": "[2]; single healthy donor, FIG. 14A", "value": "increases monocyte chemotaxis in a concentration dependent manner"}]}
{"molecule": "MCP-1: Monocyte Chemotactic Protein-1, chemotactic cytokine", "values": [{"measurement": "migration of monocytes in combination with galectin-3", "setting": "[2]; single healthy donor", "value": "induce migration"}]}
{"molecule": "SDF-1: Stromal cell-Derived Factor-1, chemotactic cytokine", "values": [{"measurement": "migration of monocytes in combination with galectin-3", "setting": "[2]; single healthy donor", "value": "induce migration"}]}
